Measured values as given in patent US20040186170A1, “Benzofuran derivatives, pharmaceutical composition containing the same, and a process for the preparation of the active ingredient” (EGIS GYOGYSZERGYAR, priority 1998, published 2004).
Counter-ions that a name gives are not always drawn. Like-named read-outs stand apart in the source and are kept apart here.

Experiments:
[1] = target: T1, 5-HT1A receptor (Rattus norvegicus, UniProt P19327); assay: 5-HT1A receptor binding assay
T1 sequence (P19327 1-422): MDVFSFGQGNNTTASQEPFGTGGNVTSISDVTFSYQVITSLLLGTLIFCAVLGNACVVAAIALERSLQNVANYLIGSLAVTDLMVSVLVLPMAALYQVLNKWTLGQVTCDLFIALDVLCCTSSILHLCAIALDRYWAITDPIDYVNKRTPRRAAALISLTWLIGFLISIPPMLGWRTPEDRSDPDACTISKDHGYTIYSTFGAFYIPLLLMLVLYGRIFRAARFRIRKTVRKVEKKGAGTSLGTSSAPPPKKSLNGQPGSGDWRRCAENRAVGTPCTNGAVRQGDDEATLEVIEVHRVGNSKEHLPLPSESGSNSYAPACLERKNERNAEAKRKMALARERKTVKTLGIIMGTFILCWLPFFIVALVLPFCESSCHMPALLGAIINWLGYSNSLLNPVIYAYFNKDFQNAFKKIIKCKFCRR

[2] = system: isolated perfused rat heart; assay: TTC prolonging effect in isolated Langendorff rat hearts (global ischemia)
Experimental: Measurement of the cardioprotective effect in ischemic rat heart (Langendorff) preparation
The time lapsed after starting global ischemia until the beginning of contracture (i.e. time to contracture=TTC) is prolonged by several cardioprotective compounds, thus, the effectiveness of the compounds can be examined by measuring TTC.
Male Sprague-Dawley rats weighing 300 to 350 g were injected with 2500 IU (0.5 ml) of heparin i.p. and 10 minutes later the animals were anaesthetized with sodium pentobarbital/5-ethyl-5-(1-methylbutyl)-2,4,6(1H,3H,5H)-pyrimidinetrione sodium salt/ in a dose of 60 mg/kg i.p. The heart was quickly excised, and the aorta was connected to a cannula fixed to a Langendorff apparatus. The heart was perfused at a constant pressure (8000 Pa) with a modified carbogenized Krebs-Henseleit solution. The composition of the solution was the following (in mM): NaCl 118, KCl 4.7, MgSO4 1.6, CaCl2 2.5, NaHCO3 24.88, KH2PO4 1.18, EDTA 0.5, glucose 11. Partial CO2 pressure and pH of the solution were maintained within the physiological limits (pCO2 4000-4650 Pa, pH=7.3-7.45).
A hole was cut in the wall of the left atrium and a water-filled plastic balloon attached to a metal cannula was inserted into the left ventricle. End diastolic pressure of the left ventricle was set to a value between 666-1333 Pa during the equilibration period by changing the volume of the liquid in the balloon, however, later it was not modified.
After a 20 minutes' equilibration period, the hearts were perfused for 10 minutes with the vehicle (0.04% of dimethyl sulfoxide), in case of the control group, or with a solution of the test substance at 10^−6 or 10^−5 M concentration, in case of the treated groups. The activity of the test compound was not examined further when, at the end of the 10 minutes' period, the systolic pressure of the left ventricle was reduced by more than 20%, compared to the control value determined before the treatment.
Global ischemia was initiated by completely shutting off the perfusate flow and carbogenization for 25 minutes. The time period from the beginning of ischemia until the formation of myocardial contracture i.e. an increase of 666 Pa in left ventricular end diastolic pressure (TTC) was measured.
3 parallel experiments were performed with the test compounds at each concentration and parameters of 3 additional vehicle (0.04% dimethyl sulfoxide) treated hearts were measured along with the test substance.
Individual TTC values were averaged, and the effect of the test substances was expressed as a percentage change compared to the vehicle treated group. […] As a reference substance, lemakalim i.e. (3S)-trans-3,4-dihydro-3-hydroxy-2,2-dimethyl-4-(2-oxo-1-pyrrolidinyl)-2H-1-benzpyrane-6-carbonitrile was used.

[3] = system: Male Sprague-Dawley rats; assay: Elevated plus-maze test on rats; type: in vivo, rat; settings: for MED (in mg/kg) p.o.: 60 minutes prior to the test, based on the time spent in the open arms
Experimental: Elevated Plus-Maze Test on Rats
The test was carried out according to a modified method of Pelow et al./J. Neurosci. Methods, 14, 149 (1985)/. The elevated plus-maze consists of two open and two 40 cm wall enclosed arms of the same size (50×15 cm) arranged in the shape of a cross. The arms of the same type are opposite to each other. The junction of the four arms forms a central square area (15×15 cm). The apparatus is made of a wooden material elevated to a height of 50 cm and illuminated by a dim light from above. Male Sprague-Dawley rats weighing 220 to 260 g were used for the experiment.
The rats were treated with the test or reference compounds 60 minutes prior to the test. The animals were then placed onto a central square area and were subjected to the test for 5 minutes. The following 4 different parameters were determined:
time spent in the open arms;
time spent in the closed arms;
number of entries into the open arms;
number of entries into the closed arms.
A compound was considered to be effective where significant increase was found either in the time spent in the open arms (in sec) or in the number of entries into the open arms when compared to the control animals (in percentage). Minimum effective doses (MED) were determined based on the time spent in the open arms for each compound examined. Buspirone was used as the reference material.

[4] = system: Male Wistar rats; assay: Anxiolytic effect, Vogel's conflict test; settings: half an hour before the examination, tolerated number of electric shocks
Experimental: Determination of the Anxiolytic Effect on the Basis of Vogel's Conflict Test
The anxiolytic effect was examined by the method of Vogel et al./Vogel, J. R., Beer, B., Clody, D. E., Psychopharmacologia (Berl.), 21, 1 (1971)/. Male Wistar rats weighing 180 to 200 g were left to be thirsty for 48 hours and starved for 24 hours before the test. The substances to be examined and the carriers, respectively, were administered to the animals half an hour before the examination. In the test chamber, the rats were allowed to drink from the drinking tube protruding into the chamber. Following every 20th lick, the apparatus emitted an electric shock of 0.7 mA through the drinking tube. During the test lasting for 5 minutes, the number of those electric shocks was registered which the animals accepted in order to quench their thirst. The effect of the compounds was expressed as the increase of the tolerated number of electric shocks in percentage.
Meprobamate/2-methyl-2-propyltri-methylenecarbamate/ was used as the reference substance.

[5] = 10^−5 M, time to contracture, change compared to the vehicle treated group
[6] = 10^−6 M, time to contracture, change compared to the vehicle treated group

Structure (SMILES)	Ki [1] [nM]	TTC change (in %) at 10^−6 M [2] [%]	TTC change (in %) at 10^−5 M [2, 5] [%]	TTC change (in %) at 10^−6 M [2, 6] [%]	other results
CC1(C)Cc2cccc(OCC(O)CN3CCC(O)(c4cccc(C(F)(F)F)c4)CC3)c2O1 (stereo not drawn) [Example 9, 1-/3-(2,2-Dimethyl-2,3-dihydrobenzofuran-7-yloxy)-2-hydroxypropyl/-4-hydroxy-4-(3-tri-fluoromethylphenyl)piperidine hydrochloride]	20	90	–	–	TTC prolongation compared with lemakalim [2]: surpasses remarkably also the effect of lemakalim
CC1(C)Cc2cccc(OCC(O)CN3CCC(O)(c4ccc(F)cc4)CC3)c2O1 (stereo not drawn) [Example 16, 1-/3-(2,2-Dimethyl-2,3-dihydrobenzofuran-7-yloxy)-2-hydroxypropyl/-4-hydroxy-4-(4-fluoro-phenyl)piperidine]	3	5	–	–	MED (in mg/kg) p.o. [3]: 1 mg/kg; TTC change (in %) at 10^−5 M [2]: 78%
CC1(C)Cc2cccc(OCC(O)CN3CCC(O)(c4ccccc4)CC3)c2O1 (stereo not drawn) [Example 20, 1-/3-(2,2-Dimethyl-2,3-dihydrobenzofuran-7-yloxy)-2-hydroxypropyl/-4-hydroxy-4-phenyl-piperidine hydrochloride]	6	18	–	–	TTC change (in %) at 10^−5 M [2]: 65%
Cc1ccc(C2(O)CCN(CC(O)COc3cccc4c3OC(C)(C)C4)CC2)cc1 (stereo not drawn) [Example 30, 1-/3-(2,2-Dimethyl-2,3-dihydrobenzofuran-7-yloxy)-2-hydroxypropyl/-4-hydroxy-4-(4-methyl-phenyl)piperidine hydrochloride]	5	–	–	–	–
COc1cccc(N2CCN(CC(O)COc3cccc4c3OC(C)(C)C4)CC2)c1.Cl.Cl (stereo not drawn) [Example 76, 1-/3-(2,2-Dimethyl-2,3-dihydrobenzofuran-7-yloxy)-2-hydroxypropyl/-4-(3-methoxyphenyl)-piperazine dihydrochloride]	–	–	80	25	–
CC1(C)Oc2ccc(C#N)cc2[C@@H](N2CCCC2=O)[C@@H]1O [lemakalim, (3S)-trans-3,4-dihydro-3-hydroxy-2,2-dimethyl-4-(2-oxo-1-pyrrolidinyl)-2H-1-benzpyrane-6-carbonitrile, reference compound]	–	–	55	20	–
CC1(C)Cc2cccc(OCC(O)CN3CCC(C#N)(c4ccccc4)CC3)c2O1.Cl (stereo not drawn) [Example 41, 1-/3-(2,2-Dimethyl-2,3-dihydrobenzofuran-7-yloxy)-2-hydroxypropyl/-4-cyano-4-phenyl-piperidine hydrochloride]	–	32	–	–	TTC change (in %) at 10^−5 M [2]: 53%
CC1(C)Cc2cccc(OCC(O)CN3CCC(O)(c4ccc(Cl)cc4)CC3)c2O1 (stereo not drawn) [Example 14, 1-/3-(2,2-Dimethyl-2,3-dihydrobenzofuran-7-yloxy)-2-hydroxypropyl/-4-hydroxy-4-(4-chloro-phenyl)piperidine]	10	–	–	–	–
CC1(C)Cc2cccc(OCC(O)CN3CC=C(c4cccc(C(F)(F)F)c4)CC3)c2O1.Cl (stereo not drawn) [Example 8, 1-/3-(2,2-Dimethyl-2,3-dihydrobenzofuran-7-yloxy)-2-hydroxypropyl/-4-(3-trifluoromethyl-phenyl)-1,2,3,6-tetrahydropyridine hydrochloride]	–	–	90	43	–
O=C1CC2(CCCC2)CC(=O)N1CCCCN1CCN(c2ncccn2)CC1 [buspirone, reference compound]	–	–	–	–	MED (in mg/kg) p.o. [3]: 3 mg/kg
COc1ccc(N2CCN(CC(O)COc3cccc4c3OC(C)(C)C4)CC2)cc1 (stereo not drawn) [Example 68, 1-/3-(2,2-Dimethyl-2,3-dihydrobenzofuran-7-yloxy)-2-hydroxypropyl/-4-(4-methoxyphenyl)-piperazine]	–	–	43	0	MED in mg/kg ip. [4]: 20 mg/kg
CC1(C)Cc2cccc(OCC(O)CN3CCN(c4cccc(F)c4)CC3)c2O1 (stereo not drawn) [Example 66, 1-/3-(2,2-Dimethyl-2,3-dihydrobenzofuran-7-yloxy)-2-hydroxypropyl/-4-(3-fluorophenyl)-piperazine]	–	–	66	5	–
COc1ccc(C2(O)CCN(CC(O)COc3cccc4c3OC(C)(C)C4)CC2)cc1 (stereo not drawn) [Example 26, 1-/3-(2,2-Dimethyl-2,3-dihydrobenzofuran-7-yloxy)-2-hydroxypropyl/-4-hydroxy-4-(4-methoxyphenyl)-piperidine]	3	43	–	–	–
COc1ccc2cc(C3CCN(CC(O)COc4cccc5c4OC(C)(C)C5)CC3)ccc2c1.Cl (stereo not drawn) [Example 23, 1-/3-(2,2-Dimethyl-2,3-dihydrobenzofuran-7-yloxy)-2-hydroxypropyl/-4-(6-methoxynaphth-2-yl)piperidine hydrochloride]	–	–	–	–	MED (in mg/kg) p.o. [3]: 3 mg/kg
CC1(C)Cc2cccc(OCC(O)CN3CCC(O)(c4cccc(Cl)c4)CC3)c2O1 (stereo not drawn) [Example 24, 1-/3-(2,2-Dimethyl-2,3-dihydrobenzofuran-7-yloxy)-2-hydroxypropyl/-4-hydroxy-4-(3-chloro-phenyl)-piperidine hydrochloride]	12	47	–	–	MED (in mg/kg) p.o. [3]: 3 mg/kg
CCCC(C)(COC(N)=O)COC(N)=O [meprobamate, 2-methyl-2-propyltri-methylenecarbamate, reference compound]	–	–	–	–	MED in mg/kg ip. [4]: 50 mg/kg
CC1(C)Cc2cccc(OCC(O)CN3CCN(c4ccc(F)cc4)CC3)c2O1 (stereo not drawn) [Example 63, 1-/3-(2,2-Dimethyl-2,3-dihydrobenzofuran-7-yloxy)-2-hydroxypropyl/-4-(4-fluorophenyl)-piperazine]	–	–	111	−3	–
COc1cccc(C2(O)CCN(CC(O)COc3cccc4c3OC(C)(C)C4)CC2)c1 (stereo not drawn) [Example 25, 1-/3-(2,2-Dimethyl-2,3-dihydrobenzofuran-7-yloxy)-2-hydroxypropyl/-4-hydroxy-4-(3-methoxyphenyl)-piperidine hydrochloride]	0.7	2	–	–	anxiolytic effect compared with buspirone ([3]; in words): superior by one order of magnitude to buspirone; MED (in mg/kg) p.o. [3]: 0.3 mg/kg; TTC change (in %) at 10^−5 M [2]: 59%
CC1(C)Cc2cccc(OCC(O)CN3CCN(c4ccc(Cl)cc4)CC3)c2O1 (stereo not drawn) [Example 73, 1-/3-(2,2-Dimethyl-2,3-dihydrobenzofuran-7-yloxy)-2-hydroxypropyl/-4-(4-chlorophenyl)-piperazine]	–	–	49	19	–
